The values that follow are results of earlier work, collected in patent US7064109B2, “Pharmaceutical composition based on macrolides for topical application in ophthalmology” (priority 2001, dated 2006).

This series has as its system all sensitive microorganisms.

In the case of `CC[C@H]1OC(=O)[C@H](C)[C@@H](O[C@H]2C[C@@](C)(OC)[C@@H](O)[C@H](C)O2)[C@H](C)[C@@H](O[C@@H]2O[C@H](C)C[C@H](N(C)C)[C@H]2O)[C@](C)(O)C[C@@H](C)CN(C)[C@H](C)[C@@H](O)[C@]1(C)O` [azithromycin, N-methyl-11-aza-10-deoxo-10-dihydroerythromycin], for the setting “conjunctival level”, the “minimum level for eliminating microorganisms” value was 0.25 µg/g. Besides, the minimum inhibitory concentration (minimum concentration for therapeutic effectiveness in the eyes, all sensitive microorganisms) was 0.5 µg/g.
